Assay: Tissue distribution of selenium-75-labelled sterols in rats, sixth day post-injection
Assay type: in vivo, rats of the C.F.Y. strain
Conditions: tail vein, dose: 1, 7: 40 μCi, 6: 50 μCi, 3: 30 μCi, 4: 1.5 μCi, 5: 10 μCi, 8: 6.3 μCi; for % dose kg./g. in Ovaries: female rats; for % dose kg./g. in Adrenals / % dose kg./g. in Blood / % dose kg./g. in Kidneys / % dose kg./g. in Liver / % dose kg./g. in Muscle: male and female rats; for % dose kg./g. in Testes: male rats; for Concentration Ratio; Adrenals: Kidneys / Concentration Ratio; Adrenals: Liver / Concentration Ratio; Adrenals: Muscle / Concentration Ratio; Adrenals: Ovaries / Concentration Ratio; Adrenals: Testes / Concentration Ratio; Adrenals: Blood: rats; for Concentration Ratio; Adrenals: Blood: 8640 min
Experimental: The tissue distribution and target to non-target concentration ratios for seven compounds were studied in male and female rats (150-180 g) of the C.F.Y. strain. Each compound (in a volume of 0.3ml) was injected via the tail vein into two male and two female rats. The animals were then housed in separate metabolism cages prior to sacrifice and dissecting on the sixth day post-injection.

| Structure (SMILES) | % dose kg./g. in Ovaries [% dose kg./g.] | % dose kg./g. in Adrenals [% dose kg./g.] | % dose kg./g. in Blood [% dose kg./g.] | % dose kg./g. in Kidneys [% dose kg./g.] | % dose kg./g. in Liver [% dose kg./g.] | % dose kg./g. in Muscle [% dose kg./g.] | % dose kg./g. in Testes [% dose kg./g.] | Concentration Ratio; Adrenals: Kidneys | Concentration Ratio; Adrenals: Liver | Concentration Ratio; Adrenals: Muscle | Concentration Ratio; Adrenals: Ovaries | Concentration Ratio; Adrenals: Testes | Concentration Ratio; Adrenals: Blood |
| --- | --- | --- | --- | --- | --- | --- | --- | --- | --- | --- | --- | --- | --- |
| CC(C)CCC[C@@H](C)[C@H]1CC[C@H]2[C@@H]3C[C@@H](C[75Se]Cc4ccccc4)C4=C(CC[C@H](O)C4)[C@H]3CC[C@]12C [Example 5, 6β-benzylselenomethyl-19-norcholest-5(10)-en-3β-ol-^75 Se] | 2.425 | 5.286 | 0.042 | 0.083 | 0.393 | 0.015 | 0.042 | 63.4 | 13.4 | 355.3 | 2.6 | 101.4 | 126.3 |
| C[75Se]C[C@@H]1C[C@@H]2[C@H](CC[C@]3(C)[C@@H]([C@H](C)CCCC(C)C)CC[C@@H]23)C2=C1C[C@@H](OC(C)=O)CC2 [Example 6, 6β-methylselenomethyl-19-norcholest-5(10)-en-3β-ol-acetate-^75 Se] | 3.232 | 12.561 | 0.025 | 0.108 | 0.074 | 0.022 | 0.041 | 116.0 | 161.1 | 536.3 | 5.7 | 166.4 | 469.2 |
| CC(C)CCC[C@@H](C)[C@H]1CC[C@H]2[C@@H]3C[C@@H](C[75Se](C)=O)C4=C(CC[C@H](O)C4)[C@H]3CC[C@]12C (stereo partly drawn) [Example 7, 6β-methylselenomethyl-19-norcholest-5(10)-en-3β-olselenoxide-^75 Se] | 0.817 | 4.284 | 0.022 | 0.087 | 0.091 | 0.016 | 0.046 | 49.5 | 48.3 | 274 | 5.1 | 95.2 | 202 |
| CC(C)CCC[C@@H](C)[C@H]1CC[C@H]2[C@@H]3C[C@@H](C[75Se]c4ccccc4)C4=C(CC[C@H](O)C4)[C@H]3CC[C@]12C [Example 8, 6β-phenylselenomethyl-19-norcholest-5(10)-en-3β-ol-^75 Se] | 2.578 | 5.934 | 0.021 | 0.062 | 0.144 | 0.015 | 0.039 | 109.1 | 40.0 | 418.9 | 3.62 | 171.2 | 285.8 |
